Like-named read-outs stand apart in the source and are kept apart here.
Assays:
[1] = test system: HCV genotype 1b replicon; assay: HCV replicon assay, genotype 1b replicon EC50; type: cell-based, Hepatitis C virus; settings: Hepatitis C virus, read-out: EC50 [gt-1b]
Procedure, shortened: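 Assay format: compound titration on stable replicon cells, no G418 during treatment, 24 to 48 hours. Lysates were assayed for replicon RNA (hybridization/protection or TaqMan) or luciferase; EC50 fitted to four parameters against DMSO.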

[2] = molecular target: HCV NS3/4A protease genotype 1b (Hepatitis C virus genotype 1b, UniProt P26663); assay: HCV NS3/4A protease time-resolved fluorescence (TRF) assay, Ki against genotype 1b; type: biochemical
Procedure, shortened: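 Ki values come from IC50 fits corrected for substrate concentration and KM. The time-resolved fluorescence protease reaction used 25 nM peptide substrate, 2.5 h, room temperature, pH 7.5 HEPES buffer, after 30 min enzyme–inhibitor preincubation.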

[3] = molecular target: HCV NS3/4A protease A156T mutant (Hepatitis C virus genotype 1b, UniProt P26663, A1182T); assay: HCV NS3/4A protease time-resolved fluorescence (TRF) assay, Ki against A156T mutant; type: biochemical
Procedure: (§1) Measuring NS3/4A Inhibitory Activity (Ki) Against Genotype 1b, Against A156T Mutants and Against Genotype 3a
(§2) One assay for measuring inhibitory activity is HCV NS3 protease time-resolved fluorescence (TRF) assay as described below and in Mao et al., Anal. Biochem. 373:1-8, 2008 and International Patent Application Publication WO 2006/102087. A NS3 protease assay can be performed, for example, in a final volume of 20 μl assay buffer containing 50 mM HEPES, pH 7.5, 150 mM NaCl, 15% glycerol, 0.15% TRITON X-100, 10 mM DTT, and 0.1% PEG 8000. NS3 and NS4A protease is pre-incubated with various concentrations of inhibitors in DMSO for 30 min. The reaction is initiated by adding the TRF peptide substrate (final concentration 25 nM). NS3 mediated hydrolysis of the substrate was run for 2.5 hours at room temperature. Product fluorescence is detected using A Pherastar Plus plate reader (BMG) or Envision (Perkin Elmer Life and Analytical Sciences with excitation at 340 nm and emission at 615 nm using the appropriate delay time optimized for the europium fluorescence probe. Testing concentrations of different enzyme forms are selected to result in a signal to background ratio (S/B) of 10-30. IC50 values are derived using a standard four-parameter fit to the data. Ki values are derived from IC50 values using the following formula, IC50=Ki(1+[S]/KM), Eqn (1), where [S] is the concentration of substrate peptide in the reaction and KM is the Michaelis constant. See P. Gallinari et al., 38 BIOCHEM. 5620-32 (1999); P. Gallinari et al., 72 J. VIROL. 6758-69 (1998); M. Taliani et al., 240 ANAL. BIOCHEM. 60-67 (1996); Mao et al., Analytical Biochemistry 373: 1-8, 2008.
(§3) The assay described above was run against genotype 1b at a concentration of 0.2 nM, against A156T mutant strains at a concentration of 0.4 nM, and against genotype 3a at a concentration of 0.025 nM.

[4] = molecular target: HCV NS3/4A protease genotype 3a (Hepatitis C virus genotype 3a, UniProt Q81495); assay: HCV NS3/4A protease time-resolved fluorescence (TRF) assay, Ki against genotype 3a; type: biochemical
Procedure: as §1, §2, §3

[5] = HCV replicon, genotype 1b, K+ salt
[6] = IC50 [gt-1b], NS3/4A protease TRF assay, genotype 1b enzyme 0.2 nM, K+ salt
[7] = NS3/4A protease TRF assay, A156T mutant enzyme 0.4 nM, K+ salt, read-out: IC50 [gt-1b A156T]
[8] = IC50 [gt-1b], NS3/4A protease TRF assay, genotype 1b enzyme 0.2 nM
[9] = NS3/4A protease TRF assay, A156T mutant enzyme 0.4 nM, read-out: IC50 [gt-1b A156T]
[10] = IC50 [gt-1b] (nM), NS3/4A genotype 1b, enzyme 0.2 nM

Structure (SMILES)	EC50 [1, 5] [nM]	IC50 [2, 6] [nM]	IC50 [3, 7] [nM]	IC50 [4] [nM]	EC50 ([1]; HCV replicon, genotype 1b) [nM]	IC50 [2, 8] [nM]	IC50 [3, 9] [nM]	further results
CC1(S(=O)(=O)NC(=O)[C@@]23C[C@H]2/C=C\CCCCC[C@H](NC(=O)OC2C[C@@H]4C[C@@H]4C2)C(=O)N2C[C@@]4(CCc5c(c(C(F)(F)F)nc6ccc(OCF)cc56)O4)C[C@H]2C(=O)N3)CC1 (stereo partly drawn) [Example 501, (1R,5S)-bicyclo[3.1.0]hex-3-yl [(2R,6S,12Z,13aS,14aR,16aS)-9′-(fluoromethoxy)-14a-{[(1-methylcyclopropyl)sulfonyl]carbamoyl}-5,16-dioxo-5′-(trifluoromethyl)-1,1′,2′,5,6,7,8,9,10,11,13a,14,14a,15,16,16a-hexadecahydrospiro[cyclopropa[e]pyrrolo[1,2-a][1,4]diazacyclopentadecine-2,3′-pyrano[2,3-c]quinolin]-6-yl]carbamate]	3.7	0.004	0.6	0.206	–	–	–	–
CC[C@@H](C)OC(=O)N[C@H]1CCCCC/C=C\[C@@H]2C[C@@]2(C(=O)NS(=O)(=O)C2(C)CC2)NC(=O)[C@@H]2C[C@]3(CCc4c(c(C(F)(F)F)nc5ccc(OC)cc45)O3)CN2C1=O [Example 459, (2R)-butan-2-yl [(2R,6S,12Z,13aS,14aR,16aS)-9′-methoxy-14a-{[(1-methylcyclopropyl)sulfonyl]carbamoyl}-5,16-dioxo-5′-(trifluoromethyl)-1,1′,2′,5,6,7,8,9,10,11,13a,14,14a,15,16,16a-hexadecahydrospiro[cyclopropa[e]pyrrolo[1,2-a][1,4]diazacyclopentadecine-2,3′-pyrano[2,3-c]quinolin]-6-yl]carbamate]	4.4	0.049	2.65	2.31	–	–	–	–
CCc1nc2ccc(OC)cc2c2c1O[C@]1(CC2)C[C@H]2C(=O)N[C@]3(C(=O)NS(=O)(=O)C4(C)CC4)C[C@H]3/C=C\CCCCC[C@H](NC(=O)c3cc(C)cs3)C(=O)N2C1 [Example 483, (2R,6S,12Z,13aS,14aR,16aS)-5′-ethyl-9′-methoxy-N-[(1-methylcyclopropyl)sulfonyl]-6-{[(4-methylthiophen-2-yl)carbonyl]amino}-5,16-dioxo-1,1′,2′,6,7,8,9,10,11,13a,14,15,16,16a-tetradecahydrospiro[cyclopropa[e]pyrrolo[1,2-a][1,4]diazacyclopentadecine-2,3′-pyrano[2,3-c]quinoline]-14a(5H)-carboxamide]	–	–	–	0.667	0.438	0.008	0.0969	–
CCc1nc2ccc(OCCCN3CCOCC3)cc2c2c1O[C@]1(CC2)C[C@H]2C(=O)N[C@]3(C(=O)NS(=O)(=O)C4(C)CC4)C[C@H]3/C=C\CCCCC[C@H](NC(=O)OC(C)(C)C)C(=O)N2C1 [Example 514, tert-butyl {(2R,6S,12Z,13aS,14aR,16aS)-5′-ethyl-14a-{[(1-methylcyclopropyl)sulfonyl]carbamoyl}-9′-[3-(morpholin-4-yl)propoxy]-5,16-dioxo-1,1′,2′,5,6,7,8,9,10,11,13a,14,14a,15,16,16a-hexadecahydrospiro[cyclopropa[e]pyrrolo[1,2-a][1,4]diazacyclopentadecine-2,3′-pyrano[2,3-c]quinolin]-6-yl}carbamate]	–	–	–	0.224	0.668	0.012	0.0681	–
CC(C)(C)COC(=O)N[C@H]1CCCCC/C=C\[C@@H]2C[C@@]2(C(=O)NS(=O)(=O)C2(C)CC2)NC(=O)[C@@H]2C[C@]3(CCc4c(c(C(F)F)nc5ccc(Cl)cc45)O3)CN2C1=O [Example 369, 2,2-dimethylpropyl [(2R,6S,12Z,13aS,14aR,16aS)-9′-chloro-5′-(difluoromethyl)-14a-{[(1-methylcyclopropyl)sulfonyl]carbamoyl}-5,16-dioxo-1,1′,2′,5,6,7,8,9,10,11,13a,14,14a,15,16,16a-hexadecahydrospiro[cyclopropa[e]pyrrolo[1,2-a][1,4]diazacyclopentadecine-2,3′-pyrano[2,3-c]quinolin]-6-yl]carbamate]	–	–	–	1.18	15.1	0.018	1.16	–
COc1ccc2nc(C)c3c(c2c1)C(F)(F)C[C@]1(C[C@H]2C(=O)N[C@]4(C(=O)NS(=O)(=O)C5(C)CC5)C[C@H]4/C=C\CCCCC[C@H](NC(=O)OCC(C)C)C(=O)N2C1)O3 [Example 266, 2-methylpropyl [(2S,6S,12Z,13aS,14aR,16aS)-1′,1′-difluoro-9′-methoxy-5′-methyl-14a-{[(1-methylcyclopropyl)sulfonyl]carbamoyl}-5,16-dioxo-1,1′,2′,5,6,7,8,9,10,11,13a,14,14a,15,16,16a-hexadecahydrospiro[cyclopropa[e]pyrrolo[1,2-a][1,4]diazacyclopentadecine-2,3′-pyrano[2,3-c]quinolin]-6-yl]carbamate]	–	–	–	2.1	–	–	–	EC50 ([1]; genotype 1b replicon, K+ salt): 4.47 nM; IC50 ([2]; IC50 [gt-1b] (nM), NS3/4A genotype 1b, enzyme 0.2 nM, K+ salt): 0.014 nM; IC50 ([3]; NS3/4A gt-1b A156T mutant, enzyme 0.4 nM, K+ salt, read-out: IC50 [gt-1b A156T]): 0.384 nM
CCc1nc2ccc(OCCCOC)cc2c2c1O[C@]1(CC2)C[C@H]2C(=O)N[C@]3(C(=O)NS(=O)(=O)C4(C)CC4)C[C@H]3/C=C\CCCCC[C@H](NC(=O)OCC(C)C)C(=O)N2C1 [Example 484, 2-methylpropyl [(2R,6S,12Z,13aS,14aR,16aS)-5′-ethyl-9′-(3-methoxypropoxy)-14a-{[(1-methylcyclopropyl)sulfonyl]carbamoyl}-5,16-dioxo-1,1′,2′,5,6,7,8,9,10,11,13a,14,14a,15,16,16a-hexadecahydrospiro[cyclopropa[e]pyrrolo[1,2-a][1,4]diazacyclopentadecine-2,3′-pyrano[2,3-c]quinolin]-6-yl]carbamate]	0.357	0.003	0.164	0.628	–	–	–	–
COc1ccc2nc(C(F)(F)F)c3c(c2c1)CC[C@]1(C[C@H]2C(=O)N[C@]4(C(=O)NS(=O)(=O)C5(C)CC5)C[C@H]4/C=C\CCCCC[C@H](NC(=O)OCC(C)C)C(=O)N2C1)O3 [Example 6, Isobutyl ((2R,6S,13aS,14aR,16aS,Z)-9′-methoxy-14a-(((1-methylcyclopropyl)sulfonyl)carbamoyl)-5,16-dioxo-5′-(trifluoromethyl)-1′,2′,3,5,6,7,8,9,10,11,13a,14,14a, 15,16,16a-hexadecahydro-1H-spiro[cyclopropa[e]pyrrolo[1,2-a][1,4]diazacyclopentadecine-2,3′-pyrano[2,3-c]quinolin]-6-yl)carbamate]	–	–	–	0.53	–	–	–	EC50 ([1]; genotype 1b replicon): 1.23 nM; IC50 [2, 10]: 0.016 nM; IC50 [3]: 0.591 nM
Cc1nc2ccccc2c2c1O[C@]1(CC2)C[C@H]2C(=O)N[C@]3(C(=O)NS(=O)(=O)C4(C)CC4)C[C@H]3/C=C\CCCCC[C@H](NC(=O)OC(C)(C)C)C(=O)N2C1 [Example 74, tert-butyl [(2R,6S,12Z,13aS,14aR,16aS)-5′-methyl-14a-{[(1-methylcyclopropyl)sulfonyl]carbamoyl}-5,16-dioxo-1,1′,2′,5,6,7,8,9,10,11,13a,14,14a,15,16,16a-hexadecahydrospiro[cyclopropa[e]pyrrolo[1,2-a][1,4]diazacyclopentadecine-2,3′-pyrano[2,3-c]quinolin]-6-yl]carbamate]	–	–	–	0.572	–	–	–	EC50 ([1]; genotype 1b replicon): 2.48 nM; IC50 [2, 10]: 0.008 nM; IC50 ([3]; NS3/4A gt-1b A156T mutant, enzyme 0.4 nM, read-out: IC50 [gt-1b A156T]): 0.124 nM

Reference: patent US8987195B2 (priority 2012, dated 2015)
